Consider 17 molecules from US20250333702A1, “CELLS WITH INCREASED IMMUNO-REGULATORY PROPERTIES AND METHODS FOR THEIR USE AND MANUFACTURE” (The Children's Medical Center Corporation, priority 2015, published 2025).

Where a name gives a salt, the structure may show the parent alone.

What all share (type): cell-based
Data set [1] relates to Human CD34+ stem and progenitor cells. Description: Viability of CD34+ cells after ex vivo treatment with agent. More on the design: concentration or dose not given beside the values. The note with it: human CD34+ cells from mobilized peripheral blood, 24 hours at 37° C. with agent.
A further data set relates to IDO-1. Description: IDO-1 mRNA level (RT-qPCR) in CD34+ cells after ex vivo treatment with agent. The note with it: mRNA by RT-qPCR, normalized against untreated cells; human CD34+ cells, 24 hours at 37° C. On the procedure: (§1) Human CD34+ stem and progenitor cells isolated from mobilized peripheral blood from three donors were ex vivo treated in […]® (StemCell Technologies) for 24 hours at 37° C. with one or more exogenous agents. Following cell treatments, gross mRNA levels were normalized against gross mRNA levels from the untreated cells […]. Levels of PD-L1 or IDO-1 mRNA were quantified from PICOPURE® isolated mRNA (Life Technologies) using an Assay on Demand TAQMAN® RT-qPCR assay (Life Technologies).
In general terms: Quantitative PCR measures a nucleic acid by following its amplification.

The next data set has as its system PD-L1 (CD274). Description: PD-L1 mRNA level (RT-qPCR) in CD34+ cells after ex vivo treatment with agent. The note with it: mRNA by RT-qPCR, normalized against untreated cells; human CD34+ cells, 24 hours at 37° C. As to the method: as §1

`CN[C@@H]1[C@H](O[C@H]2[C@H](O[C@H]3[C@H](O)[C@@H](O)[C@H](NC(=N)N)[C@@H](O)[C@@H]3NC(=N)N)O[C@@H](C)[C@]2(O)CO)O[C@@H](CO)[C@H](O)[C@H]1O` [Dihydrostreptomycin sulfate]: in data set [1] (Table 2), the “% Viability” value is 84.5%. The molecule further displayed an IDO-1 fold change with IDO-1 of 6.19 fold.
As to `C[C@@H]1C[C@H]2[C@@H]3C[C@H](F)C4=CC(=O)C=C[C@]4(C)[C@@]3(Cl)[C@@H](O)C[C@]2(C)[C@H]1C(=O)COC(=O)C(C)(C)C` [Clocortolone pivalate], in data set [1] (Table 1), the “% Viability” value turned out to be 84.9%. This molecule came in with a PD-L1 fold change with PD-L1 (CD274) of 8.64 fold.
Consider `CNCCCC1c2ccccc2C=Cc2ccccc21` [Protriptyline], for which, in data set [1] (Table 2), the “% Viability” value came out at 79.4%. In the data set on IDO-1, this molecule had an IDO-1 fold change of 5.74 fold.
Take `CCC(=O)O[C@]1(C(=O)CCl)[C@@H](C)C[C@H]2[C@@H]3CCC4=CC(=O)C=C[C@]4(C)[C@@]3(F)[C@@H](O)C[C@@]21C` [Clobetasol propionate]: the “% Viability” value in data set [1] (Table 1) is 83%. The molecule also showed a PD-L1 fold change in the data set on PD-L1 (CD274) of 9.27 fold.
Consider `Cc1scc2c1N(C(=O)CN1CCN(C)CC1)c1ccccc1NC2=O` [Telenzepine], for which the “% Viability” value in data set [1] (Table 2) came out at 88.9%. The IDO-1 fold change with IDO-1 amounted to 4.82 fold.
The corresponding values for `Nc1ccn([C@@H]2O[C@H](CO)[C@@H](O)C2(F)F)c(=O)n1` [Gemcitabine] are 81.4% and 30.13 fold.
For the molecule `OCCN1CCN(CCCN2c3ccccc3Sc3ccc(C(F)(F)F)cc32)CC1` [Fluphenazine], the “% Viability” value in data set [1] (Table 1) and in data set [1] (Table 2) was 86% each time. This molecule also showed an IDO-1 fold change in the data set with IDO-1 of 14.19 fold. Moreover, the PD-L1 fold change with PD-L1 (CD274) is given as 7.58 fold.
For `CN(C)CCC=C1c2ccccc2C=Cc2ccccc21` [Cyclobenzaprine], the “% Viability” value in data set [1] (Table 2) turned out to be 72.7%. This molecule gave an IDO-1 fold change in the data set with IDO-1 of 4.65 fold.
Regarding `CNC(C)CCC=C(C)C.CNC(C)CCC=C(C)C.O=C(O)[C@@H](O)[C@H](O)[C@H](O)[C@@H](O)C(=O)O` [Isometheptene mucate], in data set [1] (Table 2), the “% Viability” value was found to be 83.7%. For the same molecule, in the data set on IDO-1, the IDO-1 fold change worked out at 6.98 fold.
With Tyrphostin AG 835, the “% Viability” value in data set [1] (Table 1) is given as 61.3%. The PD-L1 fold change with PD-L1 (CD274) is on record as 32.57 fold.
As for `C[C@H]1C[C@H]2[C@@H]3CCC4=CC(=O)C=C[C@]4(C)[C@@]3(F)[C@@H](O)C[C@]2(C)[C@@]1(O)C(=O)CO` [Betamethasone], the “% Viability” value in data set [1] (Table 1) turned out to be 86.8%. In the data set with PD-L1 (CD274), this molecule gave a PD-L1 fold change of 4.16 fold.
With `Nc1nc(F)nc2c1ncn2[C@@H]1O[C@H](CO)[C@@H](O)[C@@H]1O` [Fludarabine], the “% Viability” value in data set [1] (Table 2) is 82.5%. Further, the IDO-1 fold change with IDO-1 is given as 4.22 fold.
For the molecule `Nc1ccc(C(=O)O)c(O)c1` [4-aminosalicylic acid], the “% Viability” value in data set [1] (Table 2) amounted to 85.3%. The IDO-1 fold change with IDO-1 was 4.07 fold.
The corresponding values for `N#Cc1ccc(C(c2ccc(C#N)cc2)n2cncn2)cc1` [Letrozole] are 81.3% and 4.38 fold.
As for `NC(=O)N/N=C/c1ccc([N+](=O)[O-])o1` [Nitro fural], the “% Viability” value in data set [1] (Table 1) was 87.2%. The PD-L1 fold change with PD-L1 (CD274) stood at 10.28 fold.
Taken in the same sequence, the figures for `CC1(C)O[C@@H]2C[C@H]3[C@@H]4C[C@H](F)C5=CC(=O)C=C[C@]5(C)[C@@]4(F)[C@@H](O)C[C@]3(C)[C@]2(C(=O)CO)O1` [Fluocinolone acetonide] were 82.9% and 10.58 fold.
The corresponding values for `C=CC(N)CCC(=O)O` (stereo not drawn) [Vigabatrin] are 67% and 16.76 fold.
